Laboratory results: ChEMBL document CHEMBL5634177, “Isolation and Structure Determination of cis-OPDA-α-Monoglyceride from Arabidopsis thaliana” (J Nat Prod, 2024)
Active and inactive are the calls of the source. No cut-off for these calls is given here.

How the values were obtained:
Assay type in all cases: functional, organism-based
Conditions in all cases: dose 50.0 µg
Bacillus subtilis = assay: Antibacterial activity against Bacillus subtilis assessed as inhibition of bacterial growth at 50 ug incubated for 24 hrs by paper disc method
Escherichia coli = assay: Antibacterial activity against Escherichia coli assessed as inhibition of bacterial growth at 50 ug incubated for 24 hrs by paper disc method
Staphylococcus aureus = assay: Antibacterial activity against Staphylococcus aureus assessed as inhibition of bacterial growth at 50 ug incubated for 24 hrs by paper disc method

CC/C=C\C[C@@H]1C(=O)C=C[C@@H]1CCCCCCCC(=O)O
Activity (Bacillus subtilis): Active
Activity (Escherichia coli): inactive
Activity (Staphylococcus aureus): Active

OCC(O)CO
Activity (Bacillus subtilis): inactive
Activity (Escherichia coli): inactive
Activity (Staphylococcus aureus): inactive

CC/C=C\C[C@@H]1C(=O)C=C[C@@H]1CCCCCCCC(=O)OCC(O)CO (some centres not stated)
Activity (Bacillus subtilis): Active
Activity (Escherichia coli): inactive
Activity (Staphylococcus aureus): Active

CC/C=C\C[C@H]1C(=O)CC[C@@H]1CC(=O)O
Activity (Bacillus subtilis): inactive
Activity (Escherichia coli): inactive
Activity (Staphylococcus aureus): inactive
